From patent US20160184230A1, “MELT-PROCESSED POLYMERIC CELLULAR DOSAGE FORM” (priority 2014, published 2016) come the findings set out here.

This data set in a line: Compression tests of solid excipient (ASTM D695-10). The class given is physicochemical. To be noted: compression-molded sample. How it is done:
Compression tests were performed on pure PEG and PEO specimen. The ASTM standard test method for compressive properties of rigid plastics, ASTM D695-10, was used as the protocol to execute compression tests. The testing machine was a Zwick Roell Z2.5 with a 2.5 kN load cell (Zwick GmbH & Co. KG, Ulm, Germany), equipped with compression platens. A speed of 1.3 mm/min was applied for the platens to move relatively towards each other.

`OC[C@@H](O)[C@@H](O)[C@H](O)[C@H](O)CO` [Mannitol] returned a Compressive strength of 0.8 MPa and a Strain at fracture of under 0.02.
